{"source": "the NIST ThermoML archive (doi:10.1021/je049776w)", "experiment": "xn = mol fraction of the nth substance listed", "conditions": "101.3 kPa, Liquid", "note": "± gives the expanded uncertainty stated by the source."}
{"compound": "Cc1ccc(C)cc1", "note": "[1,4-dimethylbenzene] + CCCCCCC", "values": [{"measurement": "mass density", "setting": "323.15 K, x1 = 0.0948", "result": "672.73 ± 1.3", "unit": "kg/m3"}, {"measurement": "viscosity", "setting": "323.15 K, x1 = 0.0948", "result": "0.3136 ± 0.011", "unit": "mPa·s"}, {"measurement": "mass density", "setting": "323.15 K, x1 = 0.1911", "result": "687.79 ± 1.2", "unit": "kg/m3"}, {"measurement": "viscosity", "setting": "323.15 K, x1 = 0.1911", "result": "0.3211 ± 0.011", "unit": "mPa·s"}, {"measurement": "mass density", "setting": "323.15 K, x1 = 0.288", "result": "703.38 ± 1.2", "unit": "kg/m3"}, {"measurement": "viscosity", "setting": "323.15 K, x1 = 0.288", "result": "0.3304 ± 0.011", "unit": "mPa·s"}, {"measurement": "mass density", "setting": "323.15 K, x1 = 0.3865", "result": "719.83 ± 1.1", "unit": "kg/m3"}, {"measurement": "viscosity", "setting": "323.15 K, x1 = 0.3865", "result": "0.3408 ± 0.011", "unit": "mPa·s"}, {"measurement": "mass density", "setting": "323.15 K, x1 = 0.4856", "result": "736.82 ± 1.1", "unit": "kg/m3"}, {"measurement": "viscosity", "setting": "323.15 K, x1 = 0.4856", "result": "0.3529 ± 0.011", "unit": "mPa·s"}, {"measurement": "mass density", "setting": "323.15 K, x1 = 0.5861", "result": "754.77 ± 1", "unit": "kg/m3"}, {"measurement": "viscosity", "setting": "323.15 K, x1 = 0.5861", "result": "0.3683 ± 0.012", "unit": "mPa·s"}, {"measurement": "mass density", "setting": "323.15 K, x1 = 0.6877", "result": "773.41 ± 0.97", "unit": "kg/m3"}, {"measurement": "viscosity", "setting": "323.15 K, x1 = 0.6877", "result": "0.3835 ± 0.012", "unit": "mPa·s"}, {"measurement": "mass density", "setting": "323.15 K, x1 = 0.7906", "result": "792.97 ± 0.9", "unit": "kg/m3"}, {"measurement": "viscosity", "setting": "323.15 K, x1 = 0.7906", "result": "0.4041 ± 0.012", "unit": "mPa·s"}, {"measurement": "mass density", "setting": "323.15 K, x1 = 0.8949", "result": "813.45 ± 0.84", "unit": "kg/m3"}, {"measurement": "viscosity", "setting": "323.15 K, x1 = 0.8949", "result": "0.4285 ± 0.013", "unit": "mPa·s"}, {"measurement": "mass density", "setting": "323.15 K, x1 = 1", "result": "834.9 ± 0.77", "unit": "kg/m3"}, {"measurement": "viscosity", "setting": "323.15 K, x1 = 1", "result": "0.4599 ± 0.013", "unit": "mPa·s"}, {"measurement": "mass density", "setting": "333.15 K, x1 = 0.0948", "result": "663.88 ± 1.3", "unit": "kg/m3"}, {"measurement": "viscosity", "setting": "333.15 K, x1 = 0.0948", "result": "0.2848 ± 0.01", "unit": "mPa·s"}, {"measurement": "mass density", "setting": "333.15 K, x1 = 0.1911", "result": "678.95 ± 1.3", "unit": "kg/m3"}, {"measurement": "viscosity", "setting": "333.15 K, x1 = 0.1911", "result": "0.2922 ± 0.01", "unit": "mPa·s"}, {"measurement": "mass density", "setting": "333.15 K, x1 = 0.288", "result": "694.52 ± 1.2", "unit": "kg/m3"}, {"measurement": "viscosity", "setting": "333.15 K, x1 = 0.288", "result": "0.2997 ± 0.011", "unit": "mPa·s"}, {"measurement": "mass density", "setting": "333.15 K, x1 = 0.3865", "result": "710.98 ± 1.2", "unit": "kg/m3"}, {"measurement": "viscosity", "setting": "333.15 K, x1 = 0.3865", "result": "0.3097 ± 0.011", "unit": "mPa·s"}, {"measurement": "mass density", "setting": "333.15 K, x1 = 0.4856", "result": "727.97 ± 1.1", "unit": "kg/m3"}, {"measurement": "viscosity", "setting": "333.15 K, x1 = 0.4856", "result": "0.3201 ± 0.011", "unit": "mPa·s"}, {"measurement": "mass density", "setting": "333.15 K, x1 = 0.5861", "result": "745.92 ± 1.1", "unit": "kg/m3"}, {"measurement": "viscosity", "setting": "333.15 K, x1 = 0.5861", "result": "0.3345 ± 0.011", "unit": "mPa·s"}, {"measurement": "mass density", "setting": "333.15 K, x1 = 0.6877", "result": "764.57 ± 0.99", "unit": "kg/m3"}, {"measurement": "viscosity", "setting": "333.15 K, x1 = 0.6877", "result": "0.3537 ± 0.011", "unit": "mPa·s"}, {"measurement": "mass density", "setting": "333.15 K, x1 = 0.7906", "result": "784.15 ± 0.93", "unit": "kg/m3"}, {"measurement": "viscosity", "setting": "333.15 K, x1 = 0.7906", "result": "0.3712 ± 0.012", "unit": "mPa·s"}, {"measurement": "mass density", "setting": "333.15 K, x1 = 0.8949", "result": "804.64 ± 0.87", "unit": "kg/m3"}, {"measurement": "viscosity", "setting": "333.15 K, x1 = 0.8949", "result": "0.3973 ± 0.012", "unit": "mPa·s"}, {"measurement": "mass density", "setting": "333.15 K, x1 = 1", "result": "826.09 ± 0.8", "unit": "kg/m3"}, {"measurement": "viscosity", "setting": "333.15 K, x1 = 1", "result": "0.4298 ± 0.013", "unit": "mPa·s"}, {"measurement": "mass density", "setting": "343.15 K, x1 = 0.0948", "result": "654.83 ± 1.3", "unit": "kg/m3"}, {"measurement": "viscosity", "setting": "343.15 K, x1 = 0.0948", "result": "0.2612 ± 0.01", "unit": "mPa·s"}, {"measurement": "mass density", "setting": "343.15 K, x1 = 0.1911", "result": "669.89 ± 1.3", "unit": "kg/m3"}, {"measurement": "viscosity", "setting": "343.15 K, x1 = 0.1911", "result": "0.2658 ± 0.01", "unit": "mPa·s"}, {"measurement": "mass density", "setting": "343.15 K, x1 = 0.288", "result": "685.48 ± 1.2", "unit": "kg/m3"}, {"measurement": "viscosity", "setting": "343.15 K, x1 = 0.288", "result": "0.273 ± 0.01", "unit": "mPa·s"}, {"measurement": "mass density", "setting": "343.15 K, x1 = 0.3865", "result": "701.94 ± 1.2", "unit": "kg/m3"}, {"measurement": "viscosity", "setting": "343.15 K, x1 = 0.3865", "result": "0.2818 ± 0.01", "unit": "mPa·s"}, {"measurement": "mass density", "setting": "343.15 K, x1 = 0.4856", "result": "718.94 ± 1.1", "unit": "kg/m3"}, {"measurement": "viscosity", "setting": "343.15 K, x1 = 0.4856", "result": "0.2915 ± 0.01", "unit": "mPa·s"}, {"measurement": "mass density", "setting": "343.15 K, x1 = 0.5861", "result": "736.91 ± 1.1", "unit": "kg/m3"}, {"measurement": "viscosity", "setting": "343.15 K, x1 = 0.5861", "result": "0.303 ± 0.011", "unit": "mPa·s"}, {"measurement": "mass density", "setting": "343.15 K, x1 = 0.6877", "result": "755.57 ± 1", "unit": "kg/m3"}, {"measurement": "viscosity", "setting": "343.15 K, x1 = 0.6877", "result": "0.3166 ± 0.011", "unit": "mPa·s"}, {"measurement": "mass density", "setting": "343.15 K, x1 = 0.7906", "result": "775.17 ± 0.96", "unit": "kg/m3"}, {"measurement": "viscosity", "setting": "343.15 K, x1 = 0.7906", "result": "0.3317 ± 0.011", "unit": "mPa·s"}, {"measurement": "mass density", "setting": "343.15 K, x1 = 0.8949", "result": "795.69 ± 0.89", "unit": "kg/m3"}, {"measurement": "viscosity", "setting": "343.15 K, x1 = 0.8949", "result": "0.3498 ± 0.011", "unit": "mPa·s"}, {"measurement": "mass density", "setting": "343.15 K, x1 = 1", "result": "817.17 ± 0.83", "unit": "kg/m3"}, {"measurement": "viscosity", "setting": "343.15 K, x1 = 1", "result": "0.3783 ± 0.012", "unit": "mPa·s"}]}
